What was measured:
[1] = biological target: c-met (as expressed in NCI-H596 cells) (human) (UniProt P08581); assay: cell-based or functional assay
[2] = system: EBC-1 shMet-4.5 tumors; assay: Combination efficacy of erlotinib with c-met knockdown (Dox) in the EBC-1 shMet-4.5 NSCLC xenograft model; type: in vivo, nude mice (nu/nu); conditions: EBC-1 shMet-4.5 xenograft
Experimental: Test material. Erlotinib (Tarceva™) was provided by OSI Pharmaceuticals to the Formulations Department at Genentech and was weighed out along with a sufficient amount of vehicle (methylcellulose tween (MCT)). Materials were stored in a refrigerator set to maintain a temperature range of 4° C. to 8° C. Anti-c-met monovalent monoclonal antibody MetMAb (rhuOA5D5v2) (WO2007/063816) was provided by the Antibody Engineering Department at Genentech, Inc., in a clear liquid form. The EBC-1 cell line was obtained from Japanese Collection of Research Bioresources (JCRB). Species. Forty nude mice (nu/nu) were obtained from Charles River Laboratories (CRL) and were acclimatized for at least one week prior to being put on study. Animals were housed in ventilated caging systems in rooms with filters supplying High-Efficiency Particulate Air (HEPA). Only animals that appeared to be healthy and were free of obvious abnormalities were used for the study. Study design. EBC-1 cells were cultured in growth media that consisted of RPMI 1640 media (Invitrogen), 2 mM L-glutamine, and 10% fetal bovine serum. To prepare cells for inoculation into mice, cells were trypsinized, washed with ten milliliters of sterile 1× phosphate buffered saline (PBS). A subset of cells was counted by trypan blue exclusion and the remainder of cells was resuspended in 100 μl of sterile 1× PBS to a concentration of 5×10^7 cells per milliliter. Mice were inoculated subcutaneously in the right sub-scapular region with 5×10^6 EBC-1 cells. […] Mice in Group 1 (control group) were treated with 100 μL vehicle control, methylcellulose tween (MCT), every day (QD) via oral gavage (PO) and were switched to drinking water containing 5% sucrose. […] Dox and sucrose water was changed every 2-3 days. Erlotinib and MCT were dosed for 14 days, stopped for 6 days and then resumed for the remainder of the study (20 days). […] All studies and handling of mice complied with the Institutional Animal Care and Use Committee (IACUC) guidelines. [table] Tumor and Body Weight Measurement. […] Fowler Company, Inc.; Newton, Mass.). The following formula was used with Excel v11.2 (Microsoft Corporation; Redmond, Wash.) to calculate tumor volume: […] Efficacy Data Analysis. Tumor inhibition was plotted using KaleidaGraph 3.6 (Synergy Software; Reading, Pa.). Percent growth inhibition (% Inh) at Day 17 was calculated as follows: […] Tumor incidence (TI) was determined by the number of measurable tumors in each group at Day 17. […] Mean tumor volume and standard error of the mean (SEM) were calculated using JMP software, version 5.1.2 (SAS Institute; Cary, N.C.). Data analysis and generation of p-values using either Student's t-test or the Dunnett's t-test was also done using JMP software, version 5.1.2. […] Mice were then grouped into four treatment arms; […] Vehicles, Group 2: Doxycycline (Dox), Group 3: erlotinib (100 mg/kg), and Group 4: erlotinib+Dox (See Table 6).

[3] = 10 mice per group, any day during the study

| Molecule | pMet/total Met in NCI-H596 xenograft tumors, percent of vehicle control (immunoprecipitation and immunoblot, Li-Cor quantification) (% of vehicle control) [1] | number of complete responses (CR; tumor regression of 100%) [2, 3] | number of partial responses (PR; tumor regression >50% but <100% of starting tumor volume) [2, 3] | reduction in tumor growth compared to the vehicle control (tumor inhibition) ([2]; nude mice, day 19, erlotinib 100 mg/kg PO QD, Dox in drinking water) [%] |
| --- | --- | --- | --- | --- |
| Anti-c-met monovalent monoclonal antibody MetMAb (rhuOA5D5v2) | 12 | – | – | – |
| C[C@H]1c2cccc(O)c2C(=O)C2=C(O)[C@]3(O)C(=O)C(C(N)=O)=C(O)[C@@H](N(C)C)[C@@H]3[C@@H](O)[C@@H]21 [Dox, doxycycline] | – | 1 | 2 | 38 |
